ChEMBL document CHEMBL1147434, “Synthesis and biological results of the technetium-99m-labeled 4-nitroimidazole for imaging tumor hypoxia” (Bioorg Med Chem Lett, 2004)

Key:
Format in all cases: ADME, organism-based
Mus musculus [1] = assay: In vivo biodistribution of radiolabeled [99mTc]N4IPA in mice brain bearing S180 tumor cell line for 2 hours; conditions: ccrf s-180, 2 h
Mus musculus [2] = assay: In vivo biodistribution of radiolabeled [99mTc]-N4IPA in mice muscle bearing S180 tumor cell line for 4 hours; conditions: ccrf s-180, 4 h
Mus musculus [3] = assay: In vivo biodistribution of radiolabeled [99mTc]-N4IPA in mice liver bearing S180 tumor cell line for 4 hours; conditions: ccrf s-180, 4 h
Mus musculus [4] = assay: In vivo biodistribution of radiolabeled [99mTc]-N4IPA in mice lung bearing S180 tumor cell line for 1 hour; conditions: ccrf s-180, 1 h
Mus musculus [5] = assay: In vivo biodistribution of radiolabeled [99mTc]N4IPA in mice liver bearing S180 tumor cell line for 8 hours; conditions: ccrf s-180, 8 h
Mus musculus [6] = assay: In vivo biodistribution of radiolabeled [99mTc]-N4IPA in mice tumor bearing S180 tumor cell line for 1 hour; conditions: ccrf s-180, 1 h
Mus musculus [7] = assay: In vivo biodistribution of radiolabeled [99mTc]-N4IPA in mice tumor/lung bearing S180 tumor cell line for 8 hours; conditions: ccrf s-180, 8 h
Mus musculus [8] = assay: In vivo biodistribution of radiolabeled [99mTc]-N4IPA in mice tumor/lung bearing S180 tumor cell line for 1 hour; conditions: ccrf s-180, 1 h
Mus musculus [9] = assay: In vivo biodistribution of radiolabeled [99mTc]-N4IPA in mice blood bearing S180 tumor cell line for 4 hours; conditions: ccrf s-180, 4 h
Mus musculus [10] = assay: In vivo biodistribution of radiolabeled [99mTc]N4IPA in mice kidney bearing S180 tumor cell line for 1 hour; conditions: ccrf s-180, 1 h
Mus musculus [11] = assay: In vivo biodistribution of radiolabeled [99mTc]-N4IPA in mice tumor/liver bearing S180 tumor cell line for 8 hours; conditions: ccrf s-180, 8 h
Mus musculus [12] = assay: In vivo biodistribution of radiolabeled [99mTc]-N4IPA in mice spleen bearing S180 tumor cell line for 2 hours; conditions: ccrf s-180, 2 h
Mus musculus [13] = assay: In vivo biodistribution of radiolabeled [99mTc]-N4IPA in mice muscle bearing S180 tumor cell line for 1 hour; conditions: ccrf s-180, 1 h
Mus musculus [14] = assay: In vivo biodistribution of radiolabeled [99mTc]N4IPA in mice tumor/blood bearing S180 tumor cell line for 2 hours; conditions: ccrf s-180, 2 h
Mus musculus [15] = assay: In vivo biodistribution of radiolabeled [99mTc]-N4IPA in mice spleen bearing S180 tumor cell line for 4 hours; conditions: ccrf s-180, 4 h
Mus musculus [16] = assay: In vivo biodistribution of radiolabeled [99mTc]-N4IPA in mice tumor/lung bearing S180 tumor cell line for 30 minutes; conditions: ccrf s-180, 0.5 h
Mus musculus [17] = assay: In vivo biodistribution of radiolabeled [99mTc]N4IPA in mice liver bearing S180 tumor cell line for 2 hours; conditions: ccrf s-180, 2 h
Mus musculus [18] = assay: In vivo biodistribution of radiolabeled [99mTc]N4IPA in mice tumor/liver bearing S180 tumor cell line for 30 minutes; conditions: ccrf s-180, 0.5 h
Mus musculus [19] = assay: In vivo biodistribution of radiolabeled [99mTc]N4IPA in mice tumor/heart bearing S180 tumor cell line for 1 hour; conditions: ccrf s-180, 1 h
Mus musculus [20] = assay: In vivo biodistribution of radiolabeled [99mTc]-N4IPA in mice spleen bearing S180 tumor cell line for 8 hours; conditions: ccrf s-180, 8 h
Mus musculus [21] = assay: In vivo biodistribution of radiolabeled [99mTc]-N4IPA in mice blood bearing S180 tumor cell line for 30 minutes; conditions: ccrf s-180, 0.5 h
Mus musculus [22] = assay: In vivo biodistribution of radiolabeled [99mTc]N4IPA in mice liver bearing S180 tumor cell line for 1 hour; conditions: ccrf s-180, 1 h
Mus musculus [23] = assay: In vivo biodistribution of radiolabeled [99mTc]-N4IPA in mice kidney bearing S180 tumor cell line for 30 minutes; conditions: ccrf s-180, 0.5 h
Mus musculus [24] = assay: In vivo biodistribution of radiolabeled [99mTc]N4IPA in mice tumor/muscle bearing S180 tumor cell line for 30 minutes; conditions: ccrf s-180, 0.5 h
Mus musculus [25] = assay: In vivo biodistribution of radiolabeled [99mTc]-N4IPA in mice kidney bearing S180 tumor cell line for 8 hours; conditions: ccrf s-180, 8 h
Mus musculus [26] = assay: In vivo biodistribution of radiolabeled [99mTc]N4IPA in mice lung bearing S180 tumor cell line for 8 hours; conditions: ccrf s-180, 8 h
Mus musculus [27] = assay: In vivo biodistribution of radiolabeled [99mTc]-N4IPA in mice tumor bearing S180 tumor cell line for 30 minutes; conditions: ccrf s-180, 0.5 h
Mus musculus [28] = assay: In vivo biodistribution of radiolabeled [99mTc]N4IPA in mice brain bearing S180 tumor cell line for 30 minutes; conditions: ccrf s-180, 0.5 h
Mus musculus [29] = assay: In vivo biodistribution of radiolabeled [99mTc]N4IPA in mice tumor/blood bearing S180 tumor cell line for 8 hours; conditions: ccrf s-180, 8 h
Mus musculus [30] = assay: In vivo biodistribution of radiolabeled [99mTc]-N4IPA in mice muscle bearing S180 tumor cell line for 8 hours; conditions: ccrf s-180, 8 h
Mus musculus [31] = assay: In vivo biodistribution of radiolabeled [99mTc]N4IPA in mice heart bearing S180 tumor cell line for 4 hours; conditions: ccrf s-180, 4 h
Mus musculus [32] = assay: In vivo biodistribution of radiolabeled [99mTc]N4IPA in mice tumor bearing S180 tumor cell line for 2 hours; conditions: ccrf s-180, 2 h
Mus musculus [33] = assay: In vivo biodistribution of radiolabeled [99mTc]-N4IPA in mice heart bearing S180 tumor cell line for 30 minutes; conditions: ccrf s-180, 0.5 h
Mus musculus [34] = assay: In vivo biodistribution of radiolabeled [99mTc]N4IPA in mice tumor/muscle bearing S180 tumor cell line for 8 hours; conditions: ccrf s-180, 8 h
Mus musculus [35] = assay: In vivo biodistribution of radiolabeled [99mTc]-N4IPA in mice blood bearing S180 tumor cell line for 2 hours; conditions: ccrf s-180, 2 h

`N/C(CCn1cnc([N+](=O)[O-])c1)=N\O` showed a Biodistribution (Mus musculus [1]) of 0.04 % g-1, a Biodistribution (Mus musculus [2]) of 0.04 % g-1 and a Biodistribution (Mus musculus [3]) of 0.39 % g-1. For the same molecule, the Biodistribution (Mus musculus [4]) was 0.22 % g-1, the Biodistribution (Mus musculus [5]) was 0.23 % g-1 and the Biodistribution (Mus musculus [6]) was 0.45 % g-1. It also gave a Biodistribution (Mus musculus [7]) of 3.09 % g-1, a Biodistribution (Mus musculus [8]) of 2.06 % g-1 and a Biodistribution (Mus musculus [9]) of 0.18 % g-1. It also gave a Biodistribution (Mus musculus [10]) of 5.44 % g-1, a Biodistribution (Mus musculus [11]) of 1.41 % g-1 and a Biodistribution (Mus musculus [12]) of 0.09 % g-1. For the same molecule, the Biodistribution (Mus musculus [13]) was 0.11 % g-1, the Biodistribution (Mus musculus [14]) was 1.81 % g-1 and the Biodistribution (Mus musculus [15]) was 0.08 % g-1. It also gave a Biodistribution (Mus musculus [16]) of 1.42 % g-1, a Biodistribution (Mus musculus [17]) of 0.46 % g-1 and a Biodistribution (Mus musculus [18]) of 0.56 % g-1. For the same molecule, the Biodistribution (Mus musculus [19]) was 3.22 % g-1, the Biodistribution (Mus musculus [20]) was 0.06 % g-1 and the Biodistribution (Mus musculus [21]) was 0.7 % g-1. It also gave a Biodistribution (Mus musculus [22]) of 0.79 % g-1, a Biodistribution (Mus musculus [23]) of 5.63 % g-1 and a Biodistribution (Mus musculus [24]) of 3.66 % g-1. It also gave a Biodistribution (Mus musculus [25]) of 2.26 % g-1, a Biodistribution (Mus musculus [26]) of 0.1 % g-1 and a Biodistribution (Mus musculus [27]) of 0.55 % g-1. The Biodistribution (Mus musculus [28]) was 0.04 % g-1, the Biodistribution (Mus musculus [29]) was 2.06 % g-1 and the Biodistribution (Mus musculus [30]) was 0.04 % g-1. For the same molecule, the Biodistribution (Mus musculus [31]) was 0.08 % g-1, the Biodistribution (Mus musculus [32]) was 0.39 % g-1 and the Biodistribution (Mus musculus [33]) was 0.24 % g-1. It also gave a Biodistribution (Mus musculus [34]) of 8.83 % g-1 and a Biodistribution (Mus musculus [35]) of 0.22 % g-1.
